Test results from ChEMBL document CHEMBL1138044, “4-amido-2-aryl-1,2,4-triazolo[4,3-a]quinoxalin-1-ones as new potent and selective human A3 adenosine receptor antagonists. synthesis, pharmacological evaluation, and ligand-receptor modeling studies” (J Med Chem, 2006).

Experiments:
[1] = biological target: T1, Adenosine receptor A1 (Homo sapiens) (UniProt P30542); experiment: Inhibition of [3H]DPCPX binding to human adenosine A1 receptor at 10 uM
T1 sequence (whole entry): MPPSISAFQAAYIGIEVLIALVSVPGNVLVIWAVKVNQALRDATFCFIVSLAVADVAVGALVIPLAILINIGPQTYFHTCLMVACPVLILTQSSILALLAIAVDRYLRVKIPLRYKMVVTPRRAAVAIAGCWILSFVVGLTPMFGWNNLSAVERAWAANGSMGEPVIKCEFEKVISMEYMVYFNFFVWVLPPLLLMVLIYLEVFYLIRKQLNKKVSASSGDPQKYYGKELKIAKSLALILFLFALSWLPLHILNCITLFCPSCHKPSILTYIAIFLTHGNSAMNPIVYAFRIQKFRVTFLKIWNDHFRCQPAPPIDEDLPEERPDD

Adenosine receptor A1 [2] = biological target: T2, Adenosine receptor A1 (Bos taurus, UniProt P28190); experiment: Displacement of [3H]DPCPX from adenosine A1 receptor in bovine brain membranes; assay type: cell membranes
T2 sequence (P28190 whole entry): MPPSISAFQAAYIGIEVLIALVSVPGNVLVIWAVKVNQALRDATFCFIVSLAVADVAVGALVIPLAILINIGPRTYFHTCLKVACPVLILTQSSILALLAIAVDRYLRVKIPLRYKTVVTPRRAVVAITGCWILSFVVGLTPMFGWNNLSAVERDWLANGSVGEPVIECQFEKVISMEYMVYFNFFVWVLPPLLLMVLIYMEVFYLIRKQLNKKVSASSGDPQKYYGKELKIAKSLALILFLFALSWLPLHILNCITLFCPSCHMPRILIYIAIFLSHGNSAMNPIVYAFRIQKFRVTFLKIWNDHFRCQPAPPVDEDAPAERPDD

Adenosine receptor A3 [3] = biological target: T3, Adenosine receptor A3 (Homo sapiens, UniProt P0DMS8); experiment: Displacement of [125I]AB-MECA from human adenosine A3 receptor expressed in CHO cells; assay type: cell-based
T3 sequence (P0DMS8 whole entry): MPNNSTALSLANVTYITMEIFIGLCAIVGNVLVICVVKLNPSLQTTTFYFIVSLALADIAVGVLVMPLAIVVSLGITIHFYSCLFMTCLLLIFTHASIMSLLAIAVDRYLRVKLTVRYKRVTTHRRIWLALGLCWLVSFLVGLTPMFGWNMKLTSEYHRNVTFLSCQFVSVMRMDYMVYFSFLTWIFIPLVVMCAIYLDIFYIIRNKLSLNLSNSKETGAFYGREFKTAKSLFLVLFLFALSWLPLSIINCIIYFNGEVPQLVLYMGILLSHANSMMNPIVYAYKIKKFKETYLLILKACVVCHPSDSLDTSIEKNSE

Adenosine receptor A2a [4] = biological target: T4, Adenosine receptor A2a (Homo sapiens, UniProt P29274); experiment: Inhibition of [3H]NECA binding to human adenosine A2A receptor at 10 uM
T4 sequence (P29274 whole entry): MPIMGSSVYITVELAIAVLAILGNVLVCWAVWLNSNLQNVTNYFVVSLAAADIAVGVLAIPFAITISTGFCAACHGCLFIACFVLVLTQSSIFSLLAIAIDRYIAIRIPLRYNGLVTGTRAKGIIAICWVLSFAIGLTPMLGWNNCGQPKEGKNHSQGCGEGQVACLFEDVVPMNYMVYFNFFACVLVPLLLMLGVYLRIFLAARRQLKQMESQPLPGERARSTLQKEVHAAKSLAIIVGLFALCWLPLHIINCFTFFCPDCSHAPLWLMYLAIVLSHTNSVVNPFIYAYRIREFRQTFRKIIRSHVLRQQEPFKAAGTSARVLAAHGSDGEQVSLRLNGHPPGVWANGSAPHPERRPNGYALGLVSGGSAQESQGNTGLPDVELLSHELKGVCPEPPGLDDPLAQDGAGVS

[5] = biological target: T5, Adenosine receptor A3 (Homo sapiens) (UniProt P0DMS8); experiment: Inhibition of [125I]AB-MECA binding to human adenosine A3 receptor at 1 uM
T5 sequence (whole entry): T3 sequence (P0DMS8 whole entry)

[6] = tested on: Adenosine receptor A2a (Bos taurus); experiment: Inhibition of [3H]CGS 21680 binding to adenosine A2A receptor in bovine striatal membranes at 10 uM; settings: Striatum, Membrane
Adenosine receptor A2b = biological target: T6, Adenosine receptor A2b (Homo sapiens, UniProt P29275); experiment: Inhibition of NECA-stimulated cAMP level in CHO cells transfected with human adenosine A2B receptor; assay type: functional, cell-based
T6 sequence (P29275 whole entry): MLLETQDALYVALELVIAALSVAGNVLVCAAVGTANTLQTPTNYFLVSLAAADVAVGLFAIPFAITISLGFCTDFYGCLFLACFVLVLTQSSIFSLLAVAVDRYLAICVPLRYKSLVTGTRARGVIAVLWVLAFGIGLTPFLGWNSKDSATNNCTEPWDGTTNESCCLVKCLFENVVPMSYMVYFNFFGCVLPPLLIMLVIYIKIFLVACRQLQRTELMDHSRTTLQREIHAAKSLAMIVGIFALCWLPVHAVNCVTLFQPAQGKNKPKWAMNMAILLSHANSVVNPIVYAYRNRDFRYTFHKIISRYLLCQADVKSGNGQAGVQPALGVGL

[7] = biological target: T7, Adenosine receptor A2b (Homo sapiens) (UniProt P29275); experiment: Inhibition of NECA-stimulated cAMP level in CHO cells transfected with human adenosine A2B receptor at 1 uM; assay type: functional, cell-based
T7 sequence (whole entry): T6 sequence (P29275 whole entry)

Adenosine receptor A3 [8] = biological target: T3, Adenosine receptor A3; experiment: Antagonist activity against Cl-IB-MECA inhibited cAMP level in CHO cells transfected with human A3 receptor; assay type: functional, cell-based
Adenosine receptor A2a [9] = biological target: T4, Adenosine receptor A2a; experiment: Displacement of [3H]NECA from human adenosine A2A receptor expressed in CHO cells; assay type: cell-based
[10] = biological target: T8, Adenosine receptor A1 (Bos taurus) (UniProt P28190); experiment: Inhibition of [3H]DPCPX binding to adenosine A1 receptor in bovine brain membranes at 10 uM; assay type: cell membranes
T8 sequence (whole entry): T2 sequence (P28190 whole entry)

Adenosine receptor A1 [11] = biological target: T9, Adenosine receptor A1 (Homo sapiens, UniProt P30542); experiment: Displacement of [3H]DPCPX from human adenosine A1 receptor expressed in CHO cells; assay type: cell-based
T9 sequence (P30542 whole entry): T1 sequence (whole entry)

[12] = biological target: Adenosine receptor A2a (Bos taurus); experiment: Displacement of [3H]CGS 21680 from adenosine A2A receptor in bovine striatal membranes

Row | inhibition [1] [%] | Ki (Adenosine receptor A1 [2]) [nM] | Ki (Adenosine receptor A3 [3]) [nM] | inhibition (Adenosine receptor A2a [4]) [%] | inhibition [6] [%] | Structure (SMILES) | further results
1 | 1 | 30 | 5.2 | 43 | – | O=C(c1ccccc1)N(C(=O)c1ccccc1)c1nc2ccccc2n2c(=O)n(-c3ccccc3)nc12 | IC50 (Adenosine receptor A2b): > 1000 nM; inhibition [7]: 15%; IC50 (Adenosine receptor A3 [8]): 28.3 nM
2 | – | 363 | 5.5 | – | – | COc1ccc(-n2nc3c(NC(C)=O)nc4c(N)cccc4n3c2=O)cc1 | Ki (Adenosine receptor A2a [9]): 1100 nM; Ki (Adenosine receptor A1 [11]): 2700 nM
3 | 11 | 260 | – | 2 | 0 | COc1ccc(-n2nc3c(NC(=O)C(c4ccccc4)c4ccccc4)nc4c([N+](=O)[O-])cccc4n3c2=O)cc1 | –
4 | 2 | 175 | 3.29 | 26 | – | COc1ccc(-n2nc3c(N(C(=O)c4ccccc4)C(=O)c4ccccc4)nc4ccccc4n3c2=O)cc1 | IC50 (Adenosine receptor A2b): > 1000 nM; inhibition [7]: 13%; IC50 (Adenosine receptor A3 [8]): 31.8 nM
5 | – | – | 343 | – | – | COc1ccc(-n2nc3c(N(C(=O)c4ccccc4)C(=O)c4ccccc4)nc4c([N+](=O)[O-])cccc4n3c2=O)cc1 | inhibition [10]: 20%
6 | 0 | 77.5 | 2.58 | 31 | 0 | COc1ccc(-n2nc3c(NC(=O)C(c4ccccc4)c4ccccc4)nc4c(N)cccc4n3c2=O)cc1 | –
7 | – | – | – | 22 | – | CC(=O)Nc1nc2ccccc2n2c(=O)n(-c3ccccc3)nc12 | Ki (Adenosine receptor A1 [11]): 2000 nM
8 | – | 10.2 | 0.81 | 58 | – | O=C(Nc1nc2ccccc2n2c(=O)n(-c3ccccc3)nc12)C(c1ccccc1)c1ccccc1 | Ki (Adenosine receptor A1 [11]): 18.8 nM; Ki [12]: 1160 nM
9 | – | – | 100 | – | 26 | O=C(Nc1nc2ccccc2n2c(=O)n(-c3ccc([N+](=O)[O-])cc3)nc12)c1ccccc1 | inhibition [10]: 55%

Further lines, the molecule ahead of its results:

Row | Structure (SMILES) | inhibition [1] [%] | Ki (Adenosine receptor A1 [2]) [nM] | Ki (Adenosine receptor A3 [3]) [nM] | inhibition (Adenosine receptor A2a [4]) [%] | inhibition [6] [%] | further results
10 | CC(=O)Nc1nc2c(N)cccc2n2c(=O)n(-c3ccccc3)nc12 | 32 | 1 | 48 | – | – | –
11 | COc1ccc(-n2nc3c(NC(C)=O)nc4ccccc4n3c2=O)cc1 | 34 | 245 | 35.7 | 6 | – | –
12 | CC(=O)Nc1nc2c([N+](=O)[O-])cccc2n2c(=O)n(-c3ccccc3)nc12 | – | 6 | – | – | 36 | inhibition [5]: 18%
13 | Nc1cccc2c1nc(NC(=O)C(c1ccccc1)c1ccccc1)c1nn(-c3ccccc3)c(=O)n12 | 2.5 | 1.6 | 8.65 | – | 12 | Ki (Adenosine receptor A2a [9]): 627 nM
14 | COc1ccc(-n2nc3c(NC(C)=O)nc4c([N+](=O)[O-])cccc4n3c2=O)cc1 | – | – | – | – | 7 | inhibition [5]: 36%; inhibition [10]: 0%
15 | COc1ccc(-n2nc3c(NC(=O)C(c4ccccc4)c4ccccc4)nc4ccccc4n3c2=O)cc1 | 25 | 7.2 | 44 | – | – | IC50 (Adenosine receptor A2b): > 1000 nM; inhibition [7]: 37%; IC50 (Adenosine receptor A3 [8]): 215 nM
16 | COc1ccc(-n2nc3c(NC(=O)c4ccccc4)nc4ccccc4n3c2=O)cc1 | 37 | 1010 | 2.9 | – | 23 | Ki (Adenosine receptor A2a [9]): 3580 nM
17 | Nc1cccc2c1nc(NC(=O)c1ccccc1)c1nn(-c3ccccc3)c(=O)n12 | – | 42 | 22 | – | 27.8 | Ki (Adenosine receptor A2a [9]): 4850 nM; Ki (Adenosine receptor A1 [11]): 98 nM
18 | COc1ccc(-n2nc3c(NC(=O)c4ccccc4)nc4c([N+](=O)[O-])cccc4n3c2=O)cc1 | – | – | 217 | – | 15 | inhibition [10]: 35%
19 | O=C(Nc1nc2ccccc2n2c(=O)n(-c3ccccc3)nc12)c1ccccc1 | – | – | – | – | – | Ki (Adenosine receptor A2a [9]): 88.2 nM; Ki (Adenosine receptor A1 [11]): 87.8 nM
20 | Nc1cccc2c1nc(N(C(=O)c1ccccc1)C(=O)c1ccccc1)c1nn(-c3ccccc3)c(=O)n12 | – | 79 | 1240 | – | 36 | –
21 | O=C(Nc1nc2ccccc2n2c(=O)n(-c3ccc([N+](=O)[O-])cc3)nc12)C(c1ccccc1)c1ccccc1 | – | – | – | – | 0 | inhibition [5]: 13%; inhibition [10]: 30%
22 | COc1ccc(-n2nc3c(NC(=O)c4ccccc4)nc4c(N)cccc4n3c2=O)cc1 | 45 | 393 | 1 | 24 | – | IC50 (Adenosine receptor A2b): > 1000 nM; inhibition [7]: 17%; IC50 (Adenosine receptor A3 [8]): 8.6 nM
23 | O=C(Nc1nc2c([N+](=O)[O-])cccc2n2c(=O)n(-c3ccccc3)nc12)c1ccccc1 | 15 | – | 22 | 25 | 0 | inhibition [10]: 32%
24 | O=C(Nc1nc2c([N+](=O)[O-])cccc2n2c(=O)n(-c3ccccc3)nc12)C(c1ccccc1)c1ccccc1 | 12 | 3.9 | 14.9 | 49 | 29.5 | –
25 | O=C(c1ccccc1)N(C(=O)c1ccccc1)c1nc2c([N+](=O)[O-])cccc2n2c(=O)n(-c3ccccc3)nc12 | – | – | – | – | 0 | inhibition [5]: 27%; inhibition [10]: 39%
